This is an account of results in US7781596B1, “Substituted 2-phenylbenzimidazoles, the production thereof and their use” (Abbott Laboratories, priority 1998, dated 2010).

Counter-ions that a name gives are not always drawn. Like-named read-outs stand apart in the source and are kept apart here. Where only a bound is given, the exact number is not on record here.

Data set [1] in a line: Determination of the solubility in water. Particulars: solution adjusted to pH 5 to 6 with sodium acetate, DMSO <=1% if not a water-soluble salt.
Experimental: (§1) If the measured substance is not in the form of a water-soluble salt, it was dissolved in the minimum amount of dimethyl sulfoxide and then diluted with water (final dimethyl sulfoxide concentration≦1%), after which the pH was again adjusted.
For data set [2] the following is noted: pH 5.
Experimental: as §1
For another data set, the system named is circulatory failure. Particulars: S. Cuzzocrea et al., Br. J. Pharmacol. 1997, 121, 1065-1074; cited from earlier work.

With `COc1ccc(-c2nc3cccc(C(N)=O)c3[nH]2)cc1` [NU 1076], the solubility in water in data set [1] is recorded as less than 0.01%.
Molecule `CCN(CC)CCOc1ccc(-c2nc3c(C(N)=O)cccc3[nH]2)cc1` [Example 2, 2-(4-(2-(N,N-Diethylamino)eth-1-yloxy)phenyl)benzimidazole-4-carboxamide×2 hydrochloride] yielded a solubility in water in data set [2] of more than 0.5%.
Turning to `NC(=O)c1cccc(N)c1` [3-aminobenzamide], the “effects in a model of circulatory failure” value in the data set with circulatory failure is “protective effects”.
